Measurements reported in patent US7811797B2, “α-isomaltosylglucosaccharide-forming enzyme, process and uses of the same” (Kabushiki Kaisha Hayashibara Seibutsu Kagaku Kenkyujo, priority 2000, dated 2010).

Key:
Parameters in all cases: key: −: it showed no change; +: it showed a slight reduction of the color spot of the substrate and the formation of other reaction product; ++: it showed a high reduction of the color spot of the substrate and the formation of other reaction product; +++: it showed a substantial disappearance of the substrate spot and the formation of other reaction product
[1] = test system: α-isomaltosylglucosaccharide-forming enzyme; assay: Action on saccharides (substrates), Enzyme of Strain A19; format: biochemical, Arthrobacter globiformis A19; conditions: two units/g substrate, substrate 2% (w/v), 30° C., pH 8.4, 24 hours, TLC
Method: (§1) It was tested whether saccharides can be used as substrates for the α-isomaltosylglucosaccharide-forming enzyme. For the purpose, a solution of maltose, maltotriose, maltotetraose, maltopentaose, maltohexaose, maltoheptaose, isomaltose, isomaltotriose, panose, isopanose, trehalose, kojibiose, nigerose, neotrehalose, cellobiose, gentibiose, maltitol, maltotriitol, lactose, sucrose, erlose, selaginose, maltosyl glucoside, or isomaltosyl glucoside was prepared.
(§2) To each of the above solutions was added two units/g substrate of a purified specimen of α-isomaltosylglucosaccharide-forming enzyme from either Bacillus globisporus C9 obtained by the method in Experiment 4-2, Bacillus globisporus C11 obtained by the method in Experiment 7-2, Bacillus globisporus N75 obtained by the method in Experiment 11-2, or Arthrobacter globiformis A19 obtained by the method in Experiment 15-2, and the resulting each solution was adjusted to give a substrate concentration of 2% (w/v) and incubated at 30° C. and pH 6.0, except for using pH 8.4 for the enzyme from Arthrobacter globiformis A19, for 24 hours. The enzyme solutions before and after the enzymatic reactions were respectively analyzed on TLC disclosed in Experiment 1 to confirm whether the enzymes acted on these substrates.

[2] = test system: α-isomaltosylglucosaccharide-forming enzyme; assay: Action on saccharides (substrates), Enzyme of Strain C9; format: biochemical, Bacillus globisporus C9; conditions: two units/g substrate, substrate 2% (w/v), 30° C., pH 6.0, 24 hours, TLC
Method: as §1, §2

[3] = test system: α-isomaltosylglucosaccharide-forming enzyme; assay: Action on saccharides (substrates), Enzyme of Strain C11; format: biochemical, Bacillus globisporus C11; conditions: two units/g substrate, substrate 2% (w/v), 30° C., pH 6.0, 24 hours, TLC
Method: as §1, §2

[4] = test system: α-isomaltosylglucosaccharide-forming enzyme; assay: Action on saccharides (substrates), Enzyme of Strain N75; format: biochemical, Bacillus globisporus N75; conditions: two units/g substrate, substrate 2% (w/v), 30° C., pH 6.0, 24 hours, TLC
Method: as §1, §2

| Molecule | Enzymatic action, Enzyme of Strain A19 [1] | Enzymatic action, Enzyme of Strain C9 [2] | Enzymatic action, Enzyme of Strain C11 [3] | Enzymatic action, Enzyme of Strain N75 [4] |
| --- | --- | --- | --- | --- |
| Maltopentaose | +++ | +++ | +++ | +++ |
| OC[C@H]1O[C@H](O[C@H]2O[C@H](CO)[C@@H](O[C@H]3O[C@H](CO)[C@@H](O)[C@H](O)[C@H]3O)[C@H](O)[C@H]2O)[C@H](O)[C@@H](O)[C@@H]1O [Maltosyl glucoside] | ++ | ++ | ++ | ++ |
| OC[C@H]1O[C@H](O[C@H]2[C@H](O)[C@@H](O)[C@@H](O[C@H]3[C@H](O)[C@@H](O)[C@@H](O[C@H]4[C@H](O)[C@@H](O)C(O)O[C@@H]4CO)O[C@@H]3CO)O[C@@H]2CO)[C@H](O)[C@@H](O)[C@@H]1O (stereo partly shown) [Maltotetraose] | +++ | +++ | +++ | +++ |
| OC[C@H]1O[C@H](O[C@H]2C(O)O[C@H](CO)[C@@H](O)[C@@H]2O)[C@H](O)[C@@H](O)[C@@H]1O (stereo partly shown) [Kojibiose] | + | + | + | + |
| Maltotriose | ++ | ++ | ++ | ++ |
| OC[C@@H](O)[C@@H](O[C@H]1O[C@H](CO)[C@@H](O[C@H]2O[C@H](CO)[C@@H](O)[C@H](O)[C@H]2O)[C@H](O)[C@H]1O)[C@H](O)[C@@H](O)CO [Maltotriitol] | + | + | + | + |
| Maltohexaose | +++ | +++ | +++ | +++ |
| OC[C@H]1O[C@H](O[C@H]2[C@H](O)[C@@H](O)[C@H](O)O[C@@H]2CO)[C@H](O)[C@@H](O)[C@@H]1O [Maltose] | + | + | + | + |
| OC[C@H]1O[C@@](CO)(O[C@H]2O[C@H](CO)[C@@H](O[C@H]3O[C@H](CO)[C@@H](O)[C@H](O)[C@H]3O)[C@H](O)[C@H]2O)[C@@H](O)[C@@H]1O [Erlose] | + | + | + | + |
| OC[C@H]1O[C@H](O[C@H]2O[C@H](CO)[C@@H](O)[C@H](O)[C@H]2O[C@H]2O[C@H](CO)[C@@H](O)[C@H](O)[C@H]2O)[C@H](O)[C@@H](O)[C@@H]1O [Selaginose] | − | − | − | − |
| OC[C@H]1O[C@H](O[C@H]2[C@H](O)[C@@H](O)[C@@H](OC[C@H]3OC(O)[C@H](O)[C@@H](O)[C@@H]3O)O[C@@H]2CO)[C@H](O)[C@@H](O)[C@@H]1O (stereo partly shown) [Isopanose] | ++ | ++ | ++ | ++ |
| OC[C@H]1O[C@H](O[C@H]2[C@H](O)[C@@H](CO)OC(O)[C@@H]2O)[C@H](O)[C@@H](O)[C@@H]1O (stereo partly shown) [Nigerose] | + | + | + | + |
| OC[C@H]1O[C@H](OC[C@H]2O[C@H](O[C@H]3[C@H](O)[C@@H](O)C(O)O[C@@H]3CO)[C@H](O)[C@@H](O)[C@@H]2O)[C@H](O)[C@@H](O)[C@@H]1O (stereo partly shown) [Panose] | − | − | − | − |
| Isomaltosyl glucoside | − | − | − | − |
| OC[C@H]1O[C@@H](O[C@H]2O[C@H](CO)[C@@H](O)[C@H](O)[C@H]2O)[C@H](O)[C@@H](O)[C@@H]1O [Neotrehalose] | + | + | + | + |
| Maltoheptaose | +++ | +++ | +++ | +++ |
